The values below come from paper PMC11242993, “Evaluation of the Therapeutic Potential of Sulfonyl Urea Derivatives as Soluble Epoxide Hydrolase (sEH) Inhibitors” (Molecules, 2024).

One series has as its target T1, mouse recombinant sEH (Mus musculus, UniProt P34914).
T1 sequence (P34914 1-554): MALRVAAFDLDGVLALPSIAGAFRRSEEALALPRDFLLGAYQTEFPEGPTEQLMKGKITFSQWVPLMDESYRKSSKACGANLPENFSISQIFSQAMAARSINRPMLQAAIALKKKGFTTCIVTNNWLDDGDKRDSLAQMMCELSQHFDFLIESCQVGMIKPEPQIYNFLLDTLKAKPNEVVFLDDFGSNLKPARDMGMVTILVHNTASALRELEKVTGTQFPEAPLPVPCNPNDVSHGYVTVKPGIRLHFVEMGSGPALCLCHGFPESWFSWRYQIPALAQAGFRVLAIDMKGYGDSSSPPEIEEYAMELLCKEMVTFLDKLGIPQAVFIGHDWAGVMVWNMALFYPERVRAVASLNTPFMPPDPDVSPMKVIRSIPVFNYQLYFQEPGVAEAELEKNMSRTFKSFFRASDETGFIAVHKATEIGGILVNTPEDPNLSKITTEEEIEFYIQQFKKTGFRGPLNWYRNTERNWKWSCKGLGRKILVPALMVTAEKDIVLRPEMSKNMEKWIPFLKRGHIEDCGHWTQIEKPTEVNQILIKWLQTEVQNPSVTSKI
As to the kind of experiment: Fluorescence-based sEH activity assay (PHOME substrate), mouse enzyme. Format: biochemical. The conditions noted are these: dose-dependent assay; read-out: Mouse sEH Inhibition IC50. How it is done:
(§1) A fluorescence-based sEH activity assay provided a convenient method for screening human epoxide hydrolase inhibitors. The assay utilized (3-Phenyl-oxiranyl)-acetic acid cyano-(6-methoxy-naphthalen-2-yl)-methyl ester (PHOME) as a substrate. […] The inhibitory function of the compounds on sEH activity was tested as detailed in the product manual from Cayman Chemical. Briefly, 3 mL sEH assay buffer (10×) was diluted with 27 mL HPLC-grade water. This final assay buffer, 25 mM bis-tris (pH 7.0), was used in the assay and for the dilution of the soluble epoxide hydrolase (sEH) enzyme. Amounts of 12 μL each of human and mouse recombinant sEH were thawed on ice. Prior to assaying, 588 μL cold assay buffer was added directly to the enzyme vial. An amount of 190 μL assay buffer and 5 μL solvent (40% DMSO in assay buffer) were added to the background wells. In the 100% initial activity wells, 185 μL assay buffer, 5 μL sEH, and 5 μL solvent were added. In inhibitor wells, 185 μL assay buffer, 5 μL solution of the synthesized compounds, and 5 μL of recombinant enzyme solution were added. To start the reaction, 5 μL of PHOME was added to each well at a final concentration of 0.25 mM. The microwell plate was shaken carefully for 10 s and covered with a plate cover.
(§2) Average fluorescence (AF) of the background wells and 100% initial activity in the wells and of each of the inhibitors were determined. The background AF was subtracted from the 100% initial activity and inhibitor AFs. The % sEH activity is calculated as (inhbitited AF/% 100 initial activity) × 100.
(§3) Multiple concentrations of the inhibitors were tested followed by plotting of the percent activity as a function of inhibitor concentration to determine the IC50 values.

In a further series the target is T2, human recombinant sEH (Homo sapiens, UniProt P34913).
T2 construct: purchased Cayman Chemical 10011671
T2 sequence (P34913 1-555): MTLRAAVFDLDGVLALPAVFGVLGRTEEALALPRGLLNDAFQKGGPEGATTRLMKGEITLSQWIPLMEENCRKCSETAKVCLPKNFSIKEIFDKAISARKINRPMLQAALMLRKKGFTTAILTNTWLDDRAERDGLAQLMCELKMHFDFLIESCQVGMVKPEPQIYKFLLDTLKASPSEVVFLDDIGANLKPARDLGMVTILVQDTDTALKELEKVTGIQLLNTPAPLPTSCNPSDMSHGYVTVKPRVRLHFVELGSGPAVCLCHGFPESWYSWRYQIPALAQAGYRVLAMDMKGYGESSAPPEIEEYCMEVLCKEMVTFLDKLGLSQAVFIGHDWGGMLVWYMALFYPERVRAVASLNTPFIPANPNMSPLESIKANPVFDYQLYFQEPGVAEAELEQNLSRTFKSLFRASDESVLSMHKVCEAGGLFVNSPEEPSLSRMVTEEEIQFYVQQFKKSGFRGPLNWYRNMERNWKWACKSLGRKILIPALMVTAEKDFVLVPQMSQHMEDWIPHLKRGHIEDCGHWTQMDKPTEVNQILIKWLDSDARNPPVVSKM
The series is described as follows: Fluorescence-based sEH activity assay (PHOME substrate), human enzyme. As to conditions: for pIC50: dose-dependent assay, read-out: Human sEH Inhibition IC50. Format: biochemical. The method, then: as §1, with “added.” for “added. To start the reaction, 5 μL of PHOME was added to each well at a final concentration of 0.25 mM. The microwell plate was shaken carefully for 10 s and covered with a plate cover.”
as §2, §3

The test system of a further series is mice. As to the kind of experiment: LPS-induced acute lung injury (ALI) model. As to conditions: 10 mg/kg i.p. The format is in vivo. How it is done:
LPS-induced acute lung injury induced by a single oropharyngeal instillation of lipopolysaccharide (LPS) (50 µg/mouse) in 16-week-old mice as described previously. Briefly, LPS (L4391, MilliporeSigma, Burlington, MA, USA) was dissolved in sterile saline and administered at 50 µg/mouse in 40 µL after anesthesia induced by ketamine/xylazine. The mice were studied 24 h after LPS or saline instillation.
BALF was collected from anesthetized mice by lavaging lungs two times with 0.8 mL Hanks’ balanced salt solution without calcium and magnesium (HBSS) (Sigma-Aldrich, St. Louis, MI, USA). Supernatants were collected as BALF for further analyses.
The number of cells in the BALF was estimated using an automated cell counter, the Countess II FL cell counter (Thermo Fisher Scientific Inc., Waltham, MA, USA).
Albumin levels were measured by the Mouse Albumin Elisa Assay kit (Cat # E99-134), which was obtained from Bethyl Laboratories. BALF samples from the LPS group were diluted at a 1:2000 ratio.
Total protein in BALF samples was measured using the Pierce BCA protein assay kit (Cat # 23225) as detailed in the product manual (Thermo Fisher Scientific).
The right middle lobe was immediately placed in an RNA later solution and stored at −80 °C until the RNA extraction procedure. RNA extraction was performed using RNeasy Mini Kits from Qiagen (Valencia, CA, USA). One microgram of total RNA was reverse transcribed to cDNA using an iScript cDNA synthesis kit (Bio-Rad, Hercules, CA, USA). Expression of the target genes was quantified using gene-specific primers and PowerSYBRGreen master mix (Thermo Fisher Scientific) in a QuantStudio 3 Real-Time PCR instrument (Thermo Fisher Scientific). Predesigned mouse IL-6 (QT00098875), TNF-α (QT00104006), IL-1β (QT01048355), CXCL1 (QT00115647), CCL2 (QT00167832), CXCL3 (QT00151599) and CXCL9 (QT00097062) primers were purchased from Qiagen (Valencia, CA, USA). Fold changes in gene expression relative to the housekeeping gene TATA-Box Binding Protein (Tbp, QT00198443) were determined. Gene expression values were calculated based on the […] method.

A further series concerns C57BL/6J male mice. The series is described as follows: Hot plate model. The format is in vivo. The conditions noted are these: 10 mg/kg i.p. How it is done:
Thermal nociception in the hot plate test was assessed with a commercially available apparatus (Hotplate Analgesia Meter, Columbus Instruments) consisting of a metal plate to a constant temperature of 55.0 ± 0.1 °C. Mice were put into the hot plate testing instrument to adapt for at least 15 min. The device was connected to a manually operated timer that recorded the amount of time the mouse spent on the heated surface before showing signs of nociception (e.g., licked its paws or jumped), the cut-off time was 60 s. The baseline (basic pain threshold, the response was more than 25 s, and the jumping mice were excluded.) was calculated as the mean of three readings recorded before testing at intervals of 15 min. The time course of latency was then determined at 15, 30, 45, 60, 90, and 120 min after compound treatment. Data were analyzed as time-course curves of the percentage of maximum effect MPE% = (post drug latency − baseline latency) × 100/(cut-off time − baseline latency). C57BL/6J male mice obtained from The Jackson Laboratory (Bar Harbor, ME, USA) weighing 28 g were used for the hot plate test. Animal procedures were conducted following the rules and regulations of the Institutional Animal Care and Use Committee of the National Institute on Alcohol Abuse and Alcoholism (NIAAA) under the protocols of LPS-GK1.

The nature of series [1]: In vivo pharmacokinetic experiment. The conditions noted are these: male, C57BL/6J, mouse, serum, other: oral and intraperitoneal; mice, oral and intraperitoneal administration, 10 mg/kg; read-out: plasma half-life. Details: species or system C57BL/6J mice. The method, then: Twenty 8–9-week-old male C57BL/6J mice were taken for the in vivo pharmacokinetic experiment. They were divided into four groups, each containing five mice. Each group was used for either oral or intraperitoneal administration of compound 4f or 15a. Both the compounds were reconstituted in 5% DMSO, 5% TWEEN 80 in saline water (pH = 7.4). The mice were orally and intraperitoneally administered compounds at 10 mg/kg dose. Blood samples were collected at 0, 0.5, 1, 2, 4, 6, and 24 h after administration of the compound, and serum was isolated with the compound. For the pharmacokinetic study, 10 μL of serum samples from mice were extracted with a 2:1 mixture of LC/MS-grade chloroform and methanol, followed by intermittent vortexing, and then centrifuged at 4000 rpm for 10 min at 4 °C. Thereafter, the supernatant was collected and analyzed by LC−MS/MS to measure the concentrations of compounds 4f and 15a in the serum.

pIC50: −log10 of the molar value.

A word on the pIC50: it is the negative decadic logarithm of the IC50, by convention in mol/L. `O=C(NC12CC3CC(CC(C3)C1)C2)NS(=O)(=O)c1ccc(F)cc1` [Compound 4j]: the pIC50 on mouse recombinant sEH is below 6.00; at human recombinant sEH it was 6.92. The “Human sEH % Inhibition” value at human recombinant sEH is recorded as 85.26%.

Turning to `O=C(NC1CCN(C(=O)NC23CC4CC(CC(C4)C2)C3)CC1)NS(=O)(=O)c1ccc(OC(F)(F)F)cc1` [Compound 18, N-(1-((adamantan-1-yl)carbamoyl)piperidin-4-yl)-N′-((4-(trifluoromethoxy)phenyl)sulfonyl)carbamimidic acid], the pIC50 at mouse recombinant sEH is 6.15. Besides, on human recombinant sEH, the “Human sEH % Inhibition” value is on record as 60.80% and the pIC50 was 7.41.

Consider `O=S(=O)(NC(=S)NC12CC3CC(CC(C3)C1)C2)c1ccccc1` [Compound 6a, N-((adamantan-1-yl)carbamothioyl)benzenesulfonamide], for which the pIC50 at mouse recombinant sEH was below 6.00. In addition, on human recombinant sEH, the “Human sEH % Inhibition” value is on record as 84.56% and the pIC50 is 6.89.

In the case of `CC12CC3CC(C)(C1)CC(NC(=O)NS(=O)(=O)c1ccc4ccccc4c1)(C3)C2` [Compound 15b, N-((3,5-dimethyladamantan-1-yl)carbamoyl)naphthalene-2-sulfonamide], the pIC50 is below 6.00 at mouse recombinant sEH and 6.02 at human recombinant sEH. Further, the “Human sEH % Inhibition” value on human recombinant sEH was found to be 47.05%.

Turning to `O=C(O)CCCCCCCCCCCNC(=O)NC12CC3CC(CC(C3)C1)C2` [AUDA, 12-(3-adamantan-1-ylureido)dodecanoic acid, reference compound], in the series on mice, the “effect on LPS-induced increase in total protein in BALF” value is “neither AUDA nor novel sEH inhibitors’ (4f and 4l) effect”; the “number of cells in bronchoalveolar lavage (BAL)” value is listed as “similarly attenuated the number of cells in BAL”. Also, in the series on mice (qPCR), the “LPS-induced lung gene expression of interleukin 1B (IL-1B)” value was “attenuated”, the “LPS-induced lung gene expression of interleukin 6 (IL-6)” value is given as “attenuated” and the “lung gene expression of CXCL1” value is reported as “similarly attenuated”. For the same molecule, the “analgesic effect in hot plate assay” value with C57BL/6J male mice is “none of the sEH inhibitors, including AUDA, showed any analgesic effect”.

Turning to `O=C(NC12CC3CC(CC(C3)C1)C2)NS(=O)(=O)c1ccccc1` [Compound 4a], the pIC50 at mouse recombinant sEH is below 6.00; on human recombinant sEH, 7.00. The “Human sEH % Inhibition” value on human recombinant sEH worked out at 93.61%.

Broadly, the half-life is how long it takes for the measured level to halve. As to `CC12CC3CC(C)(C1)CC(NC(=O)NS(=O)(=O)c1ccc(OC(F)(F)F)cc1)(C3)C2` [Compound 15a, N-((3,5-dimethyladamantan-1-yl)carbamoyl)-4-(trifluoromethoxy)benzenesulfonamide], the half-life in series [1] was below 2 h. Besides, the pIC50 was 7.66 at mouse recombinant sEH and 8.41 on human recombinant sEH. Further, on human recombinant sEH, the “Human sEH % Inhibition” value is on record as 92.06%.

With `O=S(=O)(NC(=S)NC12CC3CC(CC(C3)C1)C2)c1ccc(OC(F)(F)F)cc1` [Compound 6d, N-((adamantan-1-yl)carbamothioyl)-4-(trifluoromethoxy)benzenesulfonamide], the negative logarithm of the IC50 (pIC50) is 6.96 on mouse recombinant sEH and 8.33 at human recombinant sEH. Further, the “Human sEH % Inhibition” value on human recombinant sEH is reported as 96.24%.

`Cc1ccc(S(=O)(=O)NC(=O)NC23CC4CC(CC(C4)C2)C3)cc1` [Compound 4b, N-((adamantan-1-yl)carbamoyl)-4-methylbenzenesulfonamide]: on mouse recombinant sEH, the pIC50 is 6.07. On human recombinant sEH, the “Human sEH % Inhibition” value was determined as 91.78% and the pIC50 is 7.79.
